Reference: US20260022142A1, “MACROCYCLIC IMMUNOMODULATORS” (Bristol-Myers Squibb Company, priority 2022, published 2026)
Bridge positions count the residues as written; N and C are the ends. Square brackets hold non-standard residues; d marks the D form. Peptide text beside a SMILES is read from it. * marks the point of attachment. Bip = N[C@@H](Cc1ccc(-c2ccccc2)cc1)C(=O)O; Phe(3-Me) = Cc1cccc(C[C@H](N)C(=O)O)c1; 2Pal = N[C@@H](Cc1ccccn1)C(=O)O; 3Pal = N[C@@H](Cc1cccnc1)C(=O)O; 4Pal = N[C@@H](Cc1ccncc1)C(=O)O; d2Pal = N[C@H](Cc1ccccn1)C(=O)O; Cha = N[C@@H](CC1CCCCC1)C(=O)O; Phg = N[C@H](C(=O)O)c1ccccc1; Carboxymethyl = O=C(O)C*; Orn = NCCC[C@H](N)C(=O)O; Aun = NCCCCCCCCCCC(=O)O; Dab = NCC[C@H](N)C(=O)O; Dap = NC[C@H](N)C(=O)O

Biological target: T1, PD-1/PD-L1 interaction (PE-labeled human PD-L1-Ig binding to Jurkat cell line over-expressing human PD-1) (Homo sapiens, UniProt Q15116)
T1 construct: expressed in transfected cells; host or cells: Jurkat
T1 sequence (Q15116 25-288): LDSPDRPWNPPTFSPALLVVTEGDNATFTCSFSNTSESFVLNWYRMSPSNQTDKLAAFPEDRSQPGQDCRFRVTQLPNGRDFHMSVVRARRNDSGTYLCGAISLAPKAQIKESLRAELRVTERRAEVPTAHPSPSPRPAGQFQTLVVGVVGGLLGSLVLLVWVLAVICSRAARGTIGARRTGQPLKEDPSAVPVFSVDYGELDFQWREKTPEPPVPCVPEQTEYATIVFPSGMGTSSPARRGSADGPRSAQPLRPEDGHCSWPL
Assay: Jurkat-PD-1 Cell Binding High-Content Screening Assay (CBA)
Format: cell-based
Settings: Jurkat cell line over-expressing human PD-1; PE-labeled PD-L1-Ig 20 nM final; read-out: Jurkat hPD1-PDL1 IC50
Method in brief: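 Read-out is high-content imaging of cell-bound phycoerythrin-tagged PD-L1-Ig on fixed, Hoechst-counterstained Jurkat cells that over-express human PD-1. Compound exposure lasts 2 h at 37° C before the labeled ligand (20 nM final) is added for a further hour.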

## Cc1cccc(C[C@@H]2NC(=O)[C@H](CC(=O)O)NC(=O)[C@H](Cc3ccc(OCC(=O)O)cc3)NC(=O)[C@H](CN)NC(=O)CSC[C@@H](C(=O)N[C@@H](CCN)C(=O)NCCCCCCCCCCC(=O)O)NC(=O)[C@@H](CCC(=O)O)NC(=O)[C@H](C(C)C)NC(=O)[C@H](CC3CCCCC3)NC(=O)[C@H](CCN)NC(=O)[C@@H](CC(C)C)NC(=O)[C@H](CCCN)NC(=O)[C@H](Cc3ccc(O)cc3)NC(=O)[C@H](Cc3ccc(-c4ccccc4)cc3)NC(=O)[C@H](C(C)C)NC2=O)c1 [Compound 2756] ({CH2CO}-[Dap]Y(Carboxymethyl)D[Phe(3-Me)]V[Bip]Y[Orn][dL][Dab][Cha]V[dE]C[Dab][Aun]-OH; thioether N-14)
  IC50: 40.7 nM

## Cc1cccc(C[C@@H]2NC(=O)[C@H](CC(=O)O)NC(=O)[C@H](Cc3ccc(OCC(=O)O)cc3)NC(=O)[C@H](CN)NC(=O)CSC[C@@H](C(=O)N[C@@H](CCN)C(=O)NCCCCCCCCCCC(=O)O)NC(=O)[C@@H](CCC(=O)O)NC(=O)[C@H](C(C)C)NC(=O)[C@H](CC(C)C)NC(=O)[C@H](CCN)NC(=O)[C@@H](CC(C)C)NC(=O)[C@H](CCCN)NC(=O)[C@H](Cc3ccc(O)cc3)NC(=O)[C@H](Cc3ccc(-c4ccccc4)cc3)NC(=O)[C@H](C(C)C)NC2=O)c1 [Compound 2757] ({CH2CO}-[Dap]Y(Carboxymethyl)D[Phe(3-Me)]V[Bip]Y[Orn][dL][Dab]LV[dE]C[Dab][Aun]-OH; thioether N-14)
  IC50: 177 nM

## Cc1cccc(C[C@@H]2NC(=O)[C@H](CC(=O)O)NC(=O)[C@H](Cc3ccc(OCC(=O)O)cc3)NC(=O)[C@H](CN)NC(=O)CSC[C@@H](C(=O)N[C@@H](CCN)C(=O)NCCCCCCCCCCC(=O)O)NC(=O)[C@H](Cc3ccc(O)cc3)NC(=O)[C@H](C(C)C)NC(=O)[C@H](CC(C)C)NC(=O)[C@H](CCN)NC(=O)[C@@H](CC(C)C)NC(=O)[C@H](CCCN)NC(=O)[C@H](Cc3ccc(O)cc3)NC(=O)[C@H](Cc3ccc(-c4ccccc4)cc3)NC(=O)[C@H](C(C)C)NC2=O)c1 [Compound 2758] ({CH2CO}-[Dap]Y(Carboxymethyl)D[Phe(3-Me)]V[Bip]Y[Orn][dL][Dab]LVYC[Dab][Aun]-OH; thioether N-14)
  IC50: 99.1 nM

## Cc1cccc(C[C@@H]2NC(=O)[C@H](CC(=O)O)NC(=O)[C@H](Cc3ccc(OCC(=O)O)cc3)NC(=O)[C@H](CN)NC(=O)CSC[C@@H](C(=O)N[C@@H](CCN)C(=O)NCCCCCCCCCCC(=O)O)NC(=O)[C@H](Cc3ccc(O)cc3)NC(=O)[C@H](C(C)C)NC(=O)[C@H](CC(C)C)NC(=O)[C@H](CCN)NC(=O)[C@@H](CC(C)C)NC(=O)[C@H](CCCN)NC(=O)[C@H](Cc3ccc(O)cc3)NC(=O)[C@H](Cc3ccc(-c4ccccc4)cc3)NC(=O)[C@H](CC(C)C)NC2=O)c1 [Compound 2759] ({CH2CO}-[Dap]Y(Carboxymethyl)D[Phe(3-Me)]L[Bip]Y[Orn][dL][Dab]LVYC[Dab][Aun]-OH; thioether N-14)
  IC50: 71.1 nM

## Cc1cccc(C[C@@H]2NC(=O)[C@H](CC(=O)O)NC(=O)[C@H](Cc3ccc(OCC(=O)O)cc3)NC(=O)[C@H](CN)NC(=O)CSC[C@@H](C(=O)N[C@@H](CCN)C(=O)NCCCCCCCCCCC(=O)O)NC(=O)[C@H](Cc3ccc(OCC(=O)O)cc3)NC(=O)[C@H](C(C)C)NC(=O)[C@H](CC(C)C)NC(=O)[C@H](CCN)NC(=O)[C@@H](CC(C)C)NC(=O)[C@H](CCCN)NC(=O)[C@H](Cc3ccc(O)cc3)NC(=O)[C@H](Cc3ccc(-c4ccccc4)cc3)NC(=O)[C@H](C(C)C)NC2=O)c1 [Compound 2760] ({CH2CO}-[Dap]Y(Carboxymethyl)D[Phe(3-Me)]V[Bip]Y[Orn][dL][Dab]LVY(Carboxymethyl)C[Dab][Aun]-OH; thioether N-14)
  IC50: 38.1 nM

## Cc1cccc(C[C@@H]2NC(=O)[C@H](CC(=O)O)NC(=O)[C@H](Cc3ccc(OCC(=O)O)cc3)NC(=O)[C@H](CN)NC(=O)CSC[C@@H](C(=O)N[C@@H](CCN)C(=O)NCCCCCCCCCCC(=O)O)NC(=O)[C@H](c3ccccc3)NC(=O)[C@H](C(C)C)NC(=O)[C@H](CC(C)C)NC(=O)[C@H](CCN)NC(=O)[C@@H](CC(C)C)NC(=O)[C@H](CCCN)NC(=O)[C@H](Cc3ccc(O)cc3)NC(=O)[C@H](Cc3ccc(-c4ccccc4)cc3)NC(=O)[C@H](C(C)C)NC2=O)c1 [Compound 2761] ({CH2CO}-[Dap]Y(Carboxymethyl)D[Phe(3-Me)]V[Bip]Y[Orn][dL][Dab]LV[Phg]C[Dab][Aun]-OH; thioether N-14)
  IC50: 154 nM

## Cc1cccc(C[C@@H]2NC(=O)[C@H](CC(=O)O)NC(=O)[C@H](Cc3ccc(OCC(=O)O)cc3)NC(=O)[C@H](CN)NC(=O)CSC[C@@H](C(=O)N[C@@H](CCN)C(=O)NCCCCCCCCCCC(=O)O)NC(=O)[C@H](c3ccccc3)NC(=O)[C@H](C(C)C)NC(=O)[C@H](CC3CCCCC3)NC(=O)[C@H](CCN)NC(=O)[C@@H](CC(C)C)NC(=O)[C@H](CCCN)NC(=O)[C@H](Cc3ccc(O)cc3)NC(=O)[C@H](Cc3ccc(-c4ccccc4)cc3)NC(=O)[C@H](C(C)C)NC2=O)c1 [Compound 2762] ({CH2CO}-[Dap]Y(Carboxymethyl)D[Phe(3-Me)]V[Bip]Y[Orn][dL][Dab][Cha]V[Phg]C[Dab][Aun]-OH; thioether N-14)
  IC50: 197 nM

## Cc1cccc(C[C@@H]2NC(=O)[C@H](CC(=O)O)NC(=O)[C@H](Cc3ccc(OCC(=O)O)cc3)NC(=O)[C@H](CN)NC(=O)CSC[C@@H](C(=O)N[C@@H](CCN)C(=O)NCCCCCCCCCCC(=O)O)NC(=O)[C@H](Cc3ccccn3)NC(=O)[C@H](C(C)C)NC(=O)[C@H](CC(C)C)NC(=O)[C@H](CCN)NC(=O)[C@@H](CC(C)C)NC(=O)[C@H](CCCN)NC(=O)[C@H](Cc3ccc(O)cc3)NC(=O)[C@H](Cc3ccc(-c4ccccc4)cc3)NC(=O)[C@H](C(C)C)NC2=O)c1 [Compound 2763] ({CH2CO}-[Dap]Y(Carboxymethyl)D[Phe(3-Me)]V[Bip]Y[Orn][dL][Dab]LV[2Pal]C[Dab][Aun]-OH; thioether N-14)
  IC50: 54.9 nM

## Cc1cccc(C[C@@H]2NC(=O)[C@H](CC(=O)O)NC(=O)[C@H](Cc3ccc(OCC(=O)O)cc3)NC(=O)[C@H](CN)NC(=O)CSC[C@@H](C(=O)N[C@@H](CCN)C(=O)NCCCCCCCCCCC(=O)O)NC(=O)[C@@H](Cc3ccccn3)NC(=O)[C@H](C(C)C)NC(=O)[C@H](CC3CCCCC3)NC(=O)[C@H](CCN)NC(=O)[C@@H](CC(C)C)NC(=O)[C@H](CCCN)NC(=O)[C@H](Cc3ccc(O)cc3)NC(=O)[C@H](Cc3ccc(-c4ccccc4)cc3)NC(=O)[C@H](C(C)C)NC2=O)c1 [Compound 2764] ({CH2CO}-[Dap]Y(Carboxymethyl)D[Phe(3-Me)]V[Bip]Y[Orn][dL][Dab][Cha]V[d2Pal]C[Dab][Aun]-OH; thioether N-14)
  IC50: 68.9 nM

## Cc1cccc(C[C@@H]2NC(=O)[C@H](CC(=O)O)NC(=O)[C@H](Cc3ccc(OCC(=O)O)cc3)NC(=O)[C@H](CN)NC(=O)CSC[C@@H](C(=O)N[C@@H](CCN)C(=O)NCCCCCCCCCCC(=O)O)NC(=O)[C@H](Cc3cccnc3)NC(=O)[C@H](C(C)C)NC(=O)[C@H](CC(C)C)NC(=O)[C@H](CCN)NC(=O)[C@@H](CC(C)C)NC(=O)[C@H](CCCN)NC(=O)[C@H](Cc3ccc(O)cc3)NC(=O)[C@H](Cc3ccc(-c4ccccc4)cc3)NC(=O)[C@H](C(C)C)NC2=O)c1 [Compound 2765] ({CH2CO}-[Dap]Y(Carboxymethyl)D[Phe(3-Me)]V[Bip]Y[Orn][dL][Dab]LV[3Pal]C[Dab][Aun]-OH; thioether N-14)
  IC50: 62.4 nM

## Cc1cccc(C[C@@H]2NC(=O)[C@H](CC(=O)O)NC(=O)[C@H](Cc3ccc(OCC(=O)O)cc3)NC(=O)[C@H](CN)NC(=O)CSC[C@@H](C(=O)N[C@@H](CCN)C(=O)NCCCCCCCCCCC(=O)O)NC(=O)[C@H](Cc3cccnc3)NC(=O)[C@H](C(C)C)NC(=O)[C@H](CC3CCCCC3)NC(=O)[C@H](CCN)NC(=O)[C@@H](CC(C)C)NC(=O)[C@H](CCCN)NC(=O)[C@H](Cc3ccc(O)cc3)NC(=O)[C@H](Cc3ccc(-c4ccccc4)cc3)NC(=O)[C@H](C(C)C)NC2=O)c1 [Compound 2766] ({CH2CO}-[Dap]Y(Carboxymethyl)D[Phe(3-Me)]V[Bip]Y[Orn][dL][Dab][Cha]V[3Pal]C[Dab][Aun]-OH; thioether N-14)
  IC50: 55.9 nM

## Cc1cccc(C[C@@H]2NC(=O)[C@H](CC(=O)O)NC(=O)[C@H](Cc3ccc(OCC(=O)O)cc3)NC(=O)[C@H](CN)NC(=O)CSC[C@@H](C(=O)N[C@@H](CCN)C(=O)NCCCCCCCCCCC(=O)O)NC(=O)[C@H](Cc3ccncc3)NC(=O)[C@H](C(C)C)NC(=O)[C@H](CC(C)C)NC(=O)[C@H](CCN)NC(=O)[C@@H](CC(C)C)NC(=O)[C@H](CCCN)NC(=O)[C@H](Cc3ccc(O)cc3)NC(=O)[C@H](Cc3ccc(-c4ccccc4)cc3)NC(=O)[C@H](C(C)C)NC2=O)c1 [Compound 2767] ({CH2CO}-[Dap]Y(Carboxymethyl)D[Phe(3-Me)]V[Bip]Y[Orn][dL][Dab]LV[4Pal]C[Dab][Aun]-OH; thioether N-14)
  IC50: 42.7 nM

## Cc1cccc(C[C@@H]2NC(=O)[C@H](CC(=O)O)NC(=O)[C@H](Cc3ccc(OCC(=O)O)cc3)NC(=O)[C@H](CN)NC(=O)CSC[C@@H](C(=O)N[C@@H](CCN)C(=O)NCCCCCCCCCCC(=O)O)NC(=O)[C@H](Cc3ccncc3)NC(=O)[C@H](C(C)C)NC(=O)[C@H](CC3CCCCC3)NC(=O)[C@H](CCN)NC(=O)[C@@H](CC(C)C)NC(=O)[C@H](CCCN)NC(=O)[C@H](Cc3ccc(O)cc3)NC(=O)[C@H](Cc3ccc(-c4ccccc4)cc3)NC(=O)[C@H](C(C)C)NC2=O)c1 [Compound 2768] ({CH2CO}-[Dap]Y(Carboxymethyl)D[Phe(3-Me)]V[Bip]Y[Orn][dL][Dab][Cha]V[4Pal]C[Dab][Aun]-OH; thioether N-14)
  IC50: 55.2 nM
